# Experimental data as given in patent US20240376126A1, “PRMT5 INHIBITOR AND THE USE THEREOF” (CYTOSINLAB THERAPEUTICS CO., LTD., priority 2022, published 2024).
# pIC50: −log10 of the molar value. Read-outs that look alike come from different tables or passages of the source.
# How the values were obtained:
# [1] = target: PRMT5 MTA (Homo sapiens (Human), UniProt O14744); test: PRMT5 inhibitory activity assay in vitro, enzyme solution with MTA ([3H]-SAM Flashplate); assay type: biochemical; details: MTA 2.0 um; read-out: Enzyme activity inhibition rate PRMT5 MTA (2.0 um) IC50 (nm)
# From the text: Biological Test Example 1 PRMT5 Inhibitory Activity Assay In Vitro
# PRMT5 (Active Motiv, catalog number 31921), [^3H]—SAM (Perkin Elmer, catalog number NET155V001MC), SAM (Sigma, catalog number A7007), MTA (Sigma, catalog number D5011), SAH (Sigma, catalog number A9384), 384-well plate (Perkin Elmer, catalog number 6007299), Echo 550 (manufacturer: Labcyte, model: Echo 550), 384-well Flashplate (manufacturer: Perkin Elmer, model: SMP410A001PK)
# • (1) 1× Assay buffer (modified Tris buffer) was configured. • (2) Dilute compound: the compound was dissolved in 100% DMSO and the compound solution was added to a 384-well plate using Echo 550. • (3) Configure enzyme solution: PRMT5 was added to 1× assay buffer to prepare enzyme solution 1; PRMT5 and MTA was added to 1× assay buffer to prepare enzyme solution 2. • (4) Configure substrate solution: peptide segments and [3H]—SAM was added to 1× assay buffer. • (5) 15 μL of enzyme solution was added to the 384-well plate, and 15 μL of 1× assay buffer was added to the negative control well, and incubated at room temperature for 30 minutes. • (6) 15 μL of substrate solution was added to each well, and incubated at room temperature for 90 minutes. • (7) Configure termination reaction solution: pre-cooled SAM was added to 1× assay buffer. • (8) 10 μL of termination reaction solution was added to each well to terminate the reaction. • (9) 25 μL/well of the mixed solution was transferred to Flashplate and incubated for 1 hour at room temperature. • (10) the Flashplate three was washed times with dH2O+0.1% Tween-20 solution. • (11) the radiometric values was readed with Microbeta.
# • (1) The raw data were converted to % inhibition according to Equation 1.
# %inhibition=(Max−Signal)/(Max−Min)*100 Equation 1: • (2) the % inhibition data were entered into XL-Fit Equation 2 to obtain IC50 value:
# Y=Bottom+(Top−Bottom)/(1+(IC50/X)[…]) Equation 2: • wherein, Y is the % inhibition, and X is the concentration of the compound.
# [2] = test system: HCT116 MTAP WT cells; test: Proliferation inhibition of HCT116 cells in vitro (CellTiter Glo, 6 days); assay type: cell-based; details: Homo sapiens, HCT-116, 144 h, read-out: Cell proliferation inhibition rate HCT116 MTAP WT IC50 (nm)
# [3] = test system: HCT116-MTAP-KO (MTAP null) cells; test: Proliferation inhibition of HCT116 MTAP-KO cells in vitro (CellTiter Glo, 6 days); assay type: cell-based; details: 144 h, read-out: Cell proliferation inhibition rate HCT116-MTAP null IC50 (nm)
# PRMT5 MTA, sequence (O14744 whole entry, looked up): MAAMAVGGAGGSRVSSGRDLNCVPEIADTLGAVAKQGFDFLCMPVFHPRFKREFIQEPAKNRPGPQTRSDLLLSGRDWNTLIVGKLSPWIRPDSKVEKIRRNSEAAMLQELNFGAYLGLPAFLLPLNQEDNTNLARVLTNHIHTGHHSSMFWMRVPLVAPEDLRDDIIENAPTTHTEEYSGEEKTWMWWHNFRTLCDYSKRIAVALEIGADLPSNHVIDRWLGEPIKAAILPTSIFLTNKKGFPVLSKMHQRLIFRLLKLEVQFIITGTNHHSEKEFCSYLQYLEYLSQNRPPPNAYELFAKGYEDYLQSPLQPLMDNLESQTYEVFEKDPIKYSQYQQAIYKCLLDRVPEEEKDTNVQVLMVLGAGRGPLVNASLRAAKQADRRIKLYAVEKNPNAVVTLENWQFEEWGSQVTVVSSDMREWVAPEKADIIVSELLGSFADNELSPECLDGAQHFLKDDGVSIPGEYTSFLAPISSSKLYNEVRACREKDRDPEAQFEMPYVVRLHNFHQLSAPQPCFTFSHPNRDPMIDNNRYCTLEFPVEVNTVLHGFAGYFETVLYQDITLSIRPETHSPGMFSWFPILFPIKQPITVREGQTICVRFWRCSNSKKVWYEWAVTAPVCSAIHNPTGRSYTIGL
# PRMT5 MTA, sequence (Q9BQA1 whole entry partner, looked up): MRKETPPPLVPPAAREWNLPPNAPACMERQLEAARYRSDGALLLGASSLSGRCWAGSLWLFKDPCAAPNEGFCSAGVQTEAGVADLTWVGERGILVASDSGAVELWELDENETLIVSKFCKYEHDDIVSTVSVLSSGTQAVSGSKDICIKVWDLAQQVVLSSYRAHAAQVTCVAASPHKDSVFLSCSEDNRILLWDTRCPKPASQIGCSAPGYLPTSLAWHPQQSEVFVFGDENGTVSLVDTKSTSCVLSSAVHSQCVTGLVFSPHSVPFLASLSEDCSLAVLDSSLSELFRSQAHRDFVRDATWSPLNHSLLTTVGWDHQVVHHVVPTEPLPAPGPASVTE
SMILES,pIC50 [1],pIC50 [2],pIC50 [3],pIC50 ([3]; HCT116-MTAP null)
Cc1cc2cc(C(=O)N(Cc3nc4ccccc4s3)C34CC(C3)C4)ccc2nc1N [Example 148],8.59,–,–,–
CC(C)CN(Cc1cn2cc(C(F)(F)F)ccc2n1)C(=O)c1ccc2nc(N)c3cnn(C)c3c2c1 [Example 4],8.77,5.00 to 6.00,> 7.00,–
"CC(c1ncccn1)N(Cc1cn2ccccc2n1)C(=O)c1ccc2nc(N)c3c(c2c1)CCC3 (stereo not shown) [Example 1, 4-Amino-N-(pyrazolo[1,5-a]pyridin-2-ylmethyl)-N-(1-(pyrimidin-2-yl)ethyl)-2,3-dihydro-1H-cyclopentadieno[c]quinolin-8-carboxamide]",8.29,5.00 to 6.00,> 7.00,–
CC(C)CN(Cc1nc2ccc(C(F)(F)F)cc2[nH]1)C(=O)c1ccc2nc(N)c3cnn(C)c3c2c1 [Example 132],8.36,5.00 to 6.00,> 7.00,–
COCC(C1CC1)N(Cc1nc2ccccc2[nH]1)C(=O)c1ccc2nc(N)c(C)cc2c1 (stereo not shown) [Example 127],8.43,5.00 to 6.00,> 7.00,–
CC1OCc2c1c(N)nc1ccc(C(=O)N(Cc3cn4cc(C(F)(F)F)ccc4n3)C34CC(C3)C4)cc21 (stereo not shown) [Example 43],–,5.00 to 6.00,–,> 7.00
Cc1ncn2c1c(N)nc1cc(F)c(C(=O)N(Cc3cn4cc(C(F)(F)F)ccc4n3)CC(C)C)cc12 [Example 282],–,5.00 to 6.00,–,> 7.00
COCC(C1CC1)N(Cc1nc2cc(C(F)(F)F)ccc2s1)C(=O)c1ccc2nc(N)c(C)cc2c1 (stereo not shown) [Example 150],–,5.00 to 6.00,–,6.00 to 7.00
C[C@@H]1COC[C@H](c2cn3ccccc3n2)N1C(=O)c1ccc2nc(N)c3cnn(C)c3c2c1 [Example 63],–,5.00 to 6.00,–,> 7.00
Cn1ncc2c(N)nc3cc(F)c(C(=O)N(Cc4cn5ccccc5n4)CC(C)(F)F)cc3c21 [Example 27],–,5.00 to 6.00,–,> 7.00
Cc1nn(C)cc1N(Cc1cn2ncccc2n1)C(=O)c1cc2c(cc1F)nc(N)c1cnc(C)n12 [Example 231],–,5.00 to 6.00,–,6.00 to 7.00
CCN(Cc1cn2ccccc2n1)C(=O)c1cc2c(cc1F)nc(N)c1cnn(C)c12 [Example 2],8.52,5.00 to 6.00,> 7.00,–
CCN(Cc1ccc2c(c1)CCO2)C(=O)c1cc2c(cc1F)nc(N)c1cnc(C)n12 [Example 216],–,5.00 to 6.00,–,6.00 to 7.00
Cn1nccc1N(Cc1cn2cc(C(F)(F)F)ccc2n1)C(=O)c1ccc2nc(N)c3c(c2c1)COC3 [Example 107],–,5.00 to 6.00,–,> 7.00
CC(C)CN(Cc1nc2cc(S(F)(F)(F)(F)F)ccc2[nH]1)C(=O)c1cc2c(cc1F)nc(N)c1cnn(C)c12 [Example 133],–,6.00 to 7.00,–,> 7.00
CC(C)CN(Cc1nc2ccccc2[nH]1)C(=O)c1ccc2nc(N)c3c(c2c1)COC3C (stereo not shown) [Example 136],–,5.00 to 6.00,–,6.00 to 7.00
COCC(C1CC1)N(Cc1nc2ccccc2s1)C(=O)c1ccc2nc(N)c3c(c2c1)CCC3 (stereo not shown) [Example 147],8.54,5.00 to 6.00,6.00 to 7.00,–
CC(c1ncccn1)N(Cc1nc2ccccc2[nH]1)C(=O)c1ccc2nc(N)c3c(c2c1)CCC3 (stereo not shown) [Example 128],–,6.00 to 7.00,–,6.00 to 7.00
CCN(C(=O)c1cc2c(cc1F)nc(N)c1cnn(C)c12)C(C)c1cn2ccccc2n1 (stereo not shown) [Example 10],–,5.00 to 6.00,–,> 7.00
